Assay: in vitro
Conditions: male; for Measured concentration of analyte PEA, 0 min / Measured concentration of analyte PEA, 10 min / Measured concentration of analyte PEA, 20 min / Measured concentration of analyte PEA, 30 min / Measured concentration of analyte PEA, 60 min / % Remaining of Initial, 0 min / % Remaining of Initial, 10 min / % Remaining of Initial, 20 min / % Remaining of Initial, 30 min / % Remaining of Initial, 60 min: 1 μM; for % Remaining of Initial, 0 min / % Remaining of Initial, 10 min / % Remaining of Initial, 20 min / % Remaining of Initial, 30 min / % Remaining of Initial, 60 min / microsomal CLint at 1 μM / half-life at 1 μM: microsomes; for % Remaining of Initial, 0 min: 0 h; for % Remaining of Initial, 30 min: 0.5 h; for % Remaining of Initial, 60 min: 1 h
Experimental: (§1) Reaction mixture, minus cofactors, was prepared as described below. Test article was added into the reaction mixture at a final concentration of 1 μM. […] An aliquot of the reaction mixture (without cofactor) was equilibrated in a shaking water bath at 37° C. for 3 minutes. The reaction was initiated by the addition of cofactor, and the mixture was incubated in a shaking water bath at 37° C. Aliquots (100 μL) were withdrawn at 0, 10, 20, 30, and 60 minutes. Test article samples were immediately combined with 300 μL of ice-cold acetonitrile containing 1% formic acid. Control samples were immediately combined with 400 μL of ice-cold 50/50 acetonitrile (ACN)/dH2O containing 0.1% formic acid and internal standard to terminate the reaction. Samples were then mixed and centrifuged to precipitate proteins. Calibration standards were prepared in matched matrix. Samples and standards were assayed by LC-MS/MS using electrospray ionization for both dosed prodrug and expected drug (PEA). Analytical conditions are outlined in Appendix 8-1. Test article concentration at each time point was compared to test article concentration at time 0 to determine the percent remaining at each time point. Half-lives were calculated using GraphPad software, fitting to a single-phase exponential decay equation.
Reaction mixture, minus cofactors, was prepared as described below. Test article was added into the reaction mixture at a final concentration of 1 μM. […] An aliquot of the reaction mixture (without cofactor) was equilibrated in a shaking water bath at 37° C. for 5 minutes. Reaction was initiated by the addition of cofactor, and the mixture was incubated in a shaking water bath at 37° C. Aliquots (100 μL) were withdrawn at 0, 10, 20, 30, and 60 minutes. Test article samples were immediately combined with 300 μL of ice-cold acetonitrile containing 1% formic acid. Control samples were immediately combined with 400 μL of ice-cold 50/50 acetonitrile (ACN)/dH2O containing 0.1% formic acid and internal standard to terminate the reaction. Samples were then mixed and centrifuged to precipitate proteins. Calibration standards were prepared in matched matrix. Samples and standards were assayed by LC-MS/MS using electrospray ionization for both the dosed prodrug and the expected drug (PEA). Analytical conditions are outlined in Appendix 10-1. Test article concentration at each time point was compared to the test article concentration at time 0 to determine the percent remaining at each time point. Half-lives were calculated using GraphPad software, fitting to a single-phase exponential decay equation.
as §1, with “minutes. Reaction” for “minutes. The reaction”, “300 μL,” for “300 μL”, “Appendix 13-1.” for “Appendix 8-1.”
Reaction mixture, minus cofactors, was prepared as described below.

Measured concentration of analyte PEA, 0 min (Beagle, dog) [µM] | Measured concentration of analyte PEA, 10 min (Beagle, dog) [µM] | Measured concentration of analyte PEA, 20 min (Beagle, dog) [µM] | Measured concentration of analyte PEA, 30 min (Beagle, dog) [µM] | Measured concentration of analyte PEA, 60 min (Beagle, dog) [µM] | % Remaining of Initial, 0 min (Beagle, dog) [%] | % Remaining of Initial, 10 min (Beagle, dog) [%] | % Remaining of Initial, 20 min (Beagle, dog) [%] | % Remaining of Initial, 30 min (Beagle, dog) [%] | % Remaining of Initial, 60 min (Beagle, dog) [%] | microsomal CLint at 1 μM (Beagle, dog) [µL/min/mg] | half-life at 1 μM (Beagle, dog, Half-life) [h] | Measured concentration of analyte PEA, 0 min (CD-1, mouse) [µM] | Measured concentration of analyte PEA, 10 min (CD-1, mouse) [µM] | Measured concentration of analyte PEA, 20 min (CD-1, mouse) [µM] | Measured concentration of analyte PEA, 30 min (CD-1, mouse) [µM] | Measured concentration of analyte PEA, 60 min (CD-1, mouse) [µM] | % Remaining of Initial, 0 min (CD-1, mouse) [%] | % Remaining of Initial, 10 min (CD-1, mouse) [%] | % Remaining of Initial, 20 min (CD-1, mouse) [%] | SMILES | other results
0.23 | 0.48 | 0.38 | 0.29 | 0.17 | 100 | 5.4 | <1.0 | <1.0 | <1.0 | 581 | 0.04 | 0.48 | 0.34 | 0.19 | 0.12 | 0.023 | 100 | <1.0 | <1.0 | CCCCCCCCCCCCCCCC(=O)NCCOC(=O)CCC [Compound I-2] | % Remaining of Initial, 30 min (CD-1, mouse): <1.0%; % Remaining of Initial, 60 min (CD-1, mouse): <1.0%; microsomal CLint at 1 μM (CD-1, mouse): > 1380 µL/min/mg; half-life at 1 μM (CD-1, mouse, Half-life): < 0.0167 h
0.00074 | 0.023 | 0.037 | 0.042 | 0.053 | 100 | 94 | 85 | 85 | 74 | < 23.1 | > 1 | 0.0079 | 0.025 | 0.025 | 0.042 | 0.025 | 100 | 82 | 83 | CCCCCCCCCCCCCCCC(=O)NCCOC(=O)CCC(=O)OCC(COC(=O)CCCCCCC)OC(=O)CCCCCCC (stereo not shown) [Compound I-3, PEA-Succinate-Glycerol-Di-Caprylic] | % Remaining of Initial, 30 min (CD-1, mouse): 60%; % Remaining of Initial, 60 min (CD-1, mouse): 70%; microsomal CLint at 1 μM (CD-1, mouse): < 23.1 µL/min/mg; microsomal CLint at 1 μM (CD-1, mouse, calculated value in parentheses): 13.8 µL/min/mg; half-life at 1 μM (CD-1, mouse, Calculated half-life (in parentheses)): 1.67 h; half-life at 1 μM (CD-1, mouse, Half-life): > 1 h
0.025 | 0.081 | 0.090 | 0.087 | 0.063 | 100 | 84 | 75 | 75 | 67 | < 23.1 | > 1 | 0.048 | 0.080 | 0.052 | 0.048 | 0.024 | 100 | 72 | 57 | CC/C=C\C/C=C\C/C=C\C/C=C\C/C=C\CCCC(=O)OCCNC(=O)CCCCCCCCCCCCCCC [Compound I-5] | microsomal CLint at 1 μM (Beagle, dog, calculated value in parentheses): 13.3 µL/min/mg; half-life at 1 μM (Beagle, dog, Calculated half-life (in parentheses)): 1.73 h; % Remaining of Initial, 30 min (CD-1, mouse): 56%; % Remaining of Initial, 60 min (CD-1, mouse): 55%; microsomal CLint at 1 μM (CD-1, mouse): 23.6 µL/min/mg; half-life at 1 μM (CD-1, mouse, Half-life): 0.983 h
